Data taken from publication PMC6407917, “Identification of GSK3186899/DDD853651 as a Preclinical Development Candidate for the Treatment of Visceral Leishmaniasis” (Journal of Medicinal Chemistry, 2018).

Columns and labels:
Assay in all cases: biochemical
Set-up in all cases: species or system HEK293/K-562/placenta mixed human extract; Kinobeads chemoproteomic competition binding, quantified by TMT LC-MS/MS, dose response up to 20 uM
CAMKK2 = CAMKK2 (Homo sapiens, UniProt Q96RR4)
CDC42BPA = CDC42BPA (Homo sapiens, UniProt Q5VT25)
DAPK1 = DAPK1 (Homo sapiens, UniProt P53355)
DCK = DCK (Homo sapiens, UniProt P27707)
EPHB1 = EPHB1 (Homo sapiens, UniProt P54762)
HIPK3 = HIPK3 (Homo sapiens, UniProt Q9H422)
ITK = ITK (Homo sapiens, UniProt Q08881)
JAK1 = JAK1 (Homo sapiens, UniProt P23458)
JAK2 = JAK2 (Homo sapiens, UniProt O60674)
LIMK2 = LIMK2 (Homo sapiens, UniProt P53671)
MAP3K3 = MAP3K3 (Homo sapiens, UniProt Q99759)
MAP4K2 = MAP4K2 (Homo sapiens, UniProt Q12851)
MAPK1 = MAPK1 (Homo sapiens, UniProt P28482)
MAPK8 = MAPK8 (Homo sapiens, UniProt P45983)
MARK1 = MARK1 (Homo sapiens, UniProt Q9P0L2)
PIP4K2A = PIP4K2A (Homo sapiens, UniProt P48426)
PRKD1 = PRKD1 (Homo sapiens, UniProt Q15139)
RPS6KA1 = RPS6KA1 (Homo sapiens, UniProt Q15418)
RPS6KA5 = RPS6KA5 (Homo sapiens, UniProt O75582)
SIK2 = SIK2 (Homo sapiens, UniProt Q9H0K1)
WNK4 = WNK4 (Homo sapiens, UniProt Q96J92)

Measured: IC50

Sequence of WNK4 (Q96J92 whole entry): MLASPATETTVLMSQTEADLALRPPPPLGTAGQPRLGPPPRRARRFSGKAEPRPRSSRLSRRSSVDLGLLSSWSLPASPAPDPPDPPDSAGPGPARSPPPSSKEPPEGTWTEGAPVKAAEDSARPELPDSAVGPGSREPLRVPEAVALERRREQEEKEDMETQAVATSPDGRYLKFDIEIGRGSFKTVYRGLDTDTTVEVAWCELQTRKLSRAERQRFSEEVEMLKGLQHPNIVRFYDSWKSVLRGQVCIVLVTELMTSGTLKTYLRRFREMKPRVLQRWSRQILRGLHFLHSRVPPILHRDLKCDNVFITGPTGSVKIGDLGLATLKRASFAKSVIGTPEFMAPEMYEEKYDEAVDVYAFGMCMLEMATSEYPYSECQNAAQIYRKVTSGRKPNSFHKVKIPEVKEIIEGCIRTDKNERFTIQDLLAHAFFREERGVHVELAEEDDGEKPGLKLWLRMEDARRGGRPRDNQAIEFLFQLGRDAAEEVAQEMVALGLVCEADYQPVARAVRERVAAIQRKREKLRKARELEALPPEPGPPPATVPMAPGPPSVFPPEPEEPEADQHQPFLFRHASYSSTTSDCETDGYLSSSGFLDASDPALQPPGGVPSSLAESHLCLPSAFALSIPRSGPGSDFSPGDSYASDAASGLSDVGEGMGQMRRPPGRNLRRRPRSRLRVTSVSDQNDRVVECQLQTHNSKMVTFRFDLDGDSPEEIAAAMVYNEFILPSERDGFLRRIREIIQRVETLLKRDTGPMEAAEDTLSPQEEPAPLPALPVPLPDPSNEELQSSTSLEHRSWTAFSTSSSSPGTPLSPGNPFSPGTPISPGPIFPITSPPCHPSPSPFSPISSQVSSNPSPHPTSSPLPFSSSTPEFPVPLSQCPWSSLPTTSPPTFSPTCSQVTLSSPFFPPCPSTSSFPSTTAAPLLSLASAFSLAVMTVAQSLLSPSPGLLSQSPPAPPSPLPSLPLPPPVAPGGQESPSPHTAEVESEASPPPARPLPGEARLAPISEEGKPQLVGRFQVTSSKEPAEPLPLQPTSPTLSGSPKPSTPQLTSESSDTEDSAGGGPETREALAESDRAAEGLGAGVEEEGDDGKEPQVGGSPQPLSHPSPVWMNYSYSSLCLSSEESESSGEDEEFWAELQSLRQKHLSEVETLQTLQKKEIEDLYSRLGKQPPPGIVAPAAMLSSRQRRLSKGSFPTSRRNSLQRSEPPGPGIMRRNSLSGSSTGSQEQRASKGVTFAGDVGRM
Sequence of MAPK8 (P45983 whole entry): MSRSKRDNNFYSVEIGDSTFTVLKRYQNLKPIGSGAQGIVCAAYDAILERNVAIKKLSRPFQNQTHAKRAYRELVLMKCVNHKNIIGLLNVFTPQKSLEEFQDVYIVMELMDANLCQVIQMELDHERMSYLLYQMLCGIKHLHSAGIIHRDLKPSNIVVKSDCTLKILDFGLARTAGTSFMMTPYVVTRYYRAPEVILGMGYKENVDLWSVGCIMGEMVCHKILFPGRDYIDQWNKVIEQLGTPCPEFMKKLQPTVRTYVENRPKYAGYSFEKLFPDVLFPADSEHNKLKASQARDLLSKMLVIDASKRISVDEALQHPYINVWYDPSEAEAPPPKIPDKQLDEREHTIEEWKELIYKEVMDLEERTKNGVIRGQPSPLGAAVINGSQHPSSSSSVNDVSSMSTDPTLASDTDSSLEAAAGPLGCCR
Sequence of DCK (P27707 whole entry): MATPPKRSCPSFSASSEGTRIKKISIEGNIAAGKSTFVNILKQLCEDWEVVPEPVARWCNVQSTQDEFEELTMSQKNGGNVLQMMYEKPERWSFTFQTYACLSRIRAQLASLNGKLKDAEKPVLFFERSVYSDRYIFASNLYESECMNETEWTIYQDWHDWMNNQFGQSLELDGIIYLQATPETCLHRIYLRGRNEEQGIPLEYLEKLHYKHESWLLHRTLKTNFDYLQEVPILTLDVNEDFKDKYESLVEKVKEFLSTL
Sequence of RPS6KA1 (Q15418 whole entry): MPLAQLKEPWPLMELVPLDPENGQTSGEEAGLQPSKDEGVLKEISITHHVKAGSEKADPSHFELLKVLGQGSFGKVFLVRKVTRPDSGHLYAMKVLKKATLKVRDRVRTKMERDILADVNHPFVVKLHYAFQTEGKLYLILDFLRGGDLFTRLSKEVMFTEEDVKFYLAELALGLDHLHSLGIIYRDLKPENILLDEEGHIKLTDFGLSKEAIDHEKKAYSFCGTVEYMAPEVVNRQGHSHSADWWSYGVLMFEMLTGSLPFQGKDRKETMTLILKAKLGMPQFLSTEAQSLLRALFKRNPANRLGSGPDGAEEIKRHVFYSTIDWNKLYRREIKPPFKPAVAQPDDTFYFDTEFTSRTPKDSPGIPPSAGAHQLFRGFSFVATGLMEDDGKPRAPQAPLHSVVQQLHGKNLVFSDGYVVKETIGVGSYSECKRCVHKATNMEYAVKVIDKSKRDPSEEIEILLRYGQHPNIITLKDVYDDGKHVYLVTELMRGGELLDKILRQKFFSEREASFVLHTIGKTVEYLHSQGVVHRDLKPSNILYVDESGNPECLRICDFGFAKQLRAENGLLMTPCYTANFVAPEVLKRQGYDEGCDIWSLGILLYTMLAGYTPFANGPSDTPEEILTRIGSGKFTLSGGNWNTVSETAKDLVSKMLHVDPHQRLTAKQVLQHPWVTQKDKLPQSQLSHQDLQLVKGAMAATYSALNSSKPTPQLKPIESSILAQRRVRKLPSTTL
Sequence of PIP4K2A (P48426 whole entry): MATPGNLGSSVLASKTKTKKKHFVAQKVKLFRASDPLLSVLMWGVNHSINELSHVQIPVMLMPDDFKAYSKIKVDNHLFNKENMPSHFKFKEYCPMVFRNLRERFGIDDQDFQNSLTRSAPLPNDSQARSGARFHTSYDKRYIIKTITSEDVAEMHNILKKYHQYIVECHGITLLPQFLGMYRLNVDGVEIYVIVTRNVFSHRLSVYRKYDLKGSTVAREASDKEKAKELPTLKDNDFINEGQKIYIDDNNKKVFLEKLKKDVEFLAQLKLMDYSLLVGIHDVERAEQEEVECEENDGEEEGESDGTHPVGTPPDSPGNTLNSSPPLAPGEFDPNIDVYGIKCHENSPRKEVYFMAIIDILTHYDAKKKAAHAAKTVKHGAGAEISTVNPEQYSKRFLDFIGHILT
Sequence of MARK1 (Q9P0L2 whole entry): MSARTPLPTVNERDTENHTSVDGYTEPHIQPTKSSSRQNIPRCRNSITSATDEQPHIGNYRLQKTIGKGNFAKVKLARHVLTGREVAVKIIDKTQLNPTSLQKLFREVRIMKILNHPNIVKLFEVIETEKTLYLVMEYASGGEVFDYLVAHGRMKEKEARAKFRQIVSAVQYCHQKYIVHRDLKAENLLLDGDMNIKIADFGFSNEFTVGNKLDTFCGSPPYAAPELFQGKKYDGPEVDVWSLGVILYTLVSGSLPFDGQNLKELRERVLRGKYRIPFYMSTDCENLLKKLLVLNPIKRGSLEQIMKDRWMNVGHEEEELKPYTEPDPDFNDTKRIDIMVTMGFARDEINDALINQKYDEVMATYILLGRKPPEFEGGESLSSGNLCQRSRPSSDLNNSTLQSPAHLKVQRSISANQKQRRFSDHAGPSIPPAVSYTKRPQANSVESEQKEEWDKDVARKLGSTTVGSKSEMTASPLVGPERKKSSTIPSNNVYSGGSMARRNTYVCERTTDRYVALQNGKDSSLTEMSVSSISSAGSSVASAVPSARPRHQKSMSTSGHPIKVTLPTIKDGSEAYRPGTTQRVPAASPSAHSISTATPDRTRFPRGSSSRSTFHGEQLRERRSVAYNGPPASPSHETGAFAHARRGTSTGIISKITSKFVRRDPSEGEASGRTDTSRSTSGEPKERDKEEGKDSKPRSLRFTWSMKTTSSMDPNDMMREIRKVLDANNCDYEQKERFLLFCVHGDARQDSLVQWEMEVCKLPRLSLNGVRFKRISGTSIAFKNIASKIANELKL
Sequence of EPHB1 (P54762 whole entry): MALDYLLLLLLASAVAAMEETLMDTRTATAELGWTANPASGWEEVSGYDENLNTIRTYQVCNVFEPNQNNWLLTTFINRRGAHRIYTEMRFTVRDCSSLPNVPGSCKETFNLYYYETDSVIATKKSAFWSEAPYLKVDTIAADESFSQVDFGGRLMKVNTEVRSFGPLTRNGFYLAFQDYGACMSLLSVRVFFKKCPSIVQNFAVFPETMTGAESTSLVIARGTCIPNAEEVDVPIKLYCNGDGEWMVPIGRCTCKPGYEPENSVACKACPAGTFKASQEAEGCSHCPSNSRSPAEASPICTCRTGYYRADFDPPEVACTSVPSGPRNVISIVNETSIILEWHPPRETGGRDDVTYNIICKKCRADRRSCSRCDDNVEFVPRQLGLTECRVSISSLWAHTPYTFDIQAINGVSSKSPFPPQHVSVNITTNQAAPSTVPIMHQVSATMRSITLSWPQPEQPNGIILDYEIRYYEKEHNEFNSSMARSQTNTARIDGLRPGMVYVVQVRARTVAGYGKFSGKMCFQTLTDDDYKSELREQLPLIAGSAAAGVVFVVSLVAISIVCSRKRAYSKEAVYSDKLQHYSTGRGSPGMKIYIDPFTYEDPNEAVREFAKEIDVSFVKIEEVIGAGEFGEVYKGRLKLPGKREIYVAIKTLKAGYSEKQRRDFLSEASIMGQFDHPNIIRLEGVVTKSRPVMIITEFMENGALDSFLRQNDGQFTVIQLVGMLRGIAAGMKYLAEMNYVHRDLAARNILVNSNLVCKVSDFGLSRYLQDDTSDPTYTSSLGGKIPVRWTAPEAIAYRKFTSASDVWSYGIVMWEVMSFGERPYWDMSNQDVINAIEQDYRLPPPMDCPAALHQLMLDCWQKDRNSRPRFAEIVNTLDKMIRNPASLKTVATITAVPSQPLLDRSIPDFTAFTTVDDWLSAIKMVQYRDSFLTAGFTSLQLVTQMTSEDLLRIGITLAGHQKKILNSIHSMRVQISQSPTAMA

COc1nc(N[C@H]2CC[C@H](NS(=O)(=O)CC(C)C)CC2)nc2[nH]nc(N3CCOC[C@H]3C)c12 [compound 39, N-(trans-4-((4-Methoxy-3-((R)-3-methylmorpholino)-1H-pyrazolo[3,4-d]pyrimidin-6-yl)amino)cyclohexyl)-2-methylpropane-1-sulfonamide]
≥ 20 µM: all assays above
